From patent publication US7294637B2 (Sepracor, Inc., priority 2000, dated 2007)
Where two headings read alike, the source gives them in different places.

What was measured:
[1] = biological target: norepinephrine transporter (Homo sapiens, UniProt P23975); experiment: NE uptake: displacement of norephinephrine ligands in vitro (methods of Galli et al.); type: binding
serotonin transporter = serotonin transporter (Homo sapiens, UniProt P31645); experiment: 5-HT uptake: displacement of serotonin ligands in vitro (methods of Gu et al.); type: binding
serotonin transporter, sequence (P31645 whole entry): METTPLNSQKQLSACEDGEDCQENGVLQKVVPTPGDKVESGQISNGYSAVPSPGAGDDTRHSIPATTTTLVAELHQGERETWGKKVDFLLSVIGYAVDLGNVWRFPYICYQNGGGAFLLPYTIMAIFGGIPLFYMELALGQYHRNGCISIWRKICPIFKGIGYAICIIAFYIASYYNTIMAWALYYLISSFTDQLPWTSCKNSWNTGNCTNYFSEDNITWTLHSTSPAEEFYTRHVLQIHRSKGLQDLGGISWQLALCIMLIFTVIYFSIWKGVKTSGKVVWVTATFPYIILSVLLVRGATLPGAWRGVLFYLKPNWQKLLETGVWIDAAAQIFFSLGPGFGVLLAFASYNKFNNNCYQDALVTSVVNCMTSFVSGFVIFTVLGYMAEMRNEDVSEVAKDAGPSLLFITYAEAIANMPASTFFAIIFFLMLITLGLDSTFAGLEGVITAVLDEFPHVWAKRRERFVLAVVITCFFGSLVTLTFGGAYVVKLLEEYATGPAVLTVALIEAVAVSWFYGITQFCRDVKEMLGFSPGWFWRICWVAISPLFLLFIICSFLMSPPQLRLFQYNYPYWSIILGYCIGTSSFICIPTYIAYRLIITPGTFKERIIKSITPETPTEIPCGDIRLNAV

dopamine transporter = dopamine transporter (Homo sapiens, UniProt Q01959); experiment: DA uptake: displacement of dopamine ligands in vitro (methods of Gu et al.)
dopamine transporter, sequence (Q01959 whole entry): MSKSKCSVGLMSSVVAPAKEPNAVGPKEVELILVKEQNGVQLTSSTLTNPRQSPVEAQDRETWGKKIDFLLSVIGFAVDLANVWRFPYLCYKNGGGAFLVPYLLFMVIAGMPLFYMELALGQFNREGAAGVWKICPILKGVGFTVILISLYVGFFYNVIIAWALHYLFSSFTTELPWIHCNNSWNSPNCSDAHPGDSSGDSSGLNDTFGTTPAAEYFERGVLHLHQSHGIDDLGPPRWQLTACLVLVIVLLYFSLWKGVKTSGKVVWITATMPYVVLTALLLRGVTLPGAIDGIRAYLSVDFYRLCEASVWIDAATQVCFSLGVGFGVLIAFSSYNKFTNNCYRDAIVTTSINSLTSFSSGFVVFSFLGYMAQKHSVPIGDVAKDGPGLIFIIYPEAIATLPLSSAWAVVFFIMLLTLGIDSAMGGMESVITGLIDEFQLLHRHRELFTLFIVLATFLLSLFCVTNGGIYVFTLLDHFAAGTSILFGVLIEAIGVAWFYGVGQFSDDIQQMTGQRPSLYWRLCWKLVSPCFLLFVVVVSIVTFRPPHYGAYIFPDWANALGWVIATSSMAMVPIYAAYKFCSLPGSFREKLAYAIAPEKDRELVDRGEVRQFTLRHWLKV

[2] = NE Uptake, Uptake Profile (IC50, nM)
[3] = displacement of serotonin ligands in vitro, read-out: 5-HT Uptake, Uptake Profile (IC50)
[4] = DA Uptake, Uptake Profile (IC50, nM), displacement of dopamine ligands in vitro
[5] = read-out: NE Uptake, Uptake Profile (IC50)
[6] = 5-HT Uptake, Uptake Profile (IC50, nM)

norepinephrine transporter, sequence (P23975 whole entry): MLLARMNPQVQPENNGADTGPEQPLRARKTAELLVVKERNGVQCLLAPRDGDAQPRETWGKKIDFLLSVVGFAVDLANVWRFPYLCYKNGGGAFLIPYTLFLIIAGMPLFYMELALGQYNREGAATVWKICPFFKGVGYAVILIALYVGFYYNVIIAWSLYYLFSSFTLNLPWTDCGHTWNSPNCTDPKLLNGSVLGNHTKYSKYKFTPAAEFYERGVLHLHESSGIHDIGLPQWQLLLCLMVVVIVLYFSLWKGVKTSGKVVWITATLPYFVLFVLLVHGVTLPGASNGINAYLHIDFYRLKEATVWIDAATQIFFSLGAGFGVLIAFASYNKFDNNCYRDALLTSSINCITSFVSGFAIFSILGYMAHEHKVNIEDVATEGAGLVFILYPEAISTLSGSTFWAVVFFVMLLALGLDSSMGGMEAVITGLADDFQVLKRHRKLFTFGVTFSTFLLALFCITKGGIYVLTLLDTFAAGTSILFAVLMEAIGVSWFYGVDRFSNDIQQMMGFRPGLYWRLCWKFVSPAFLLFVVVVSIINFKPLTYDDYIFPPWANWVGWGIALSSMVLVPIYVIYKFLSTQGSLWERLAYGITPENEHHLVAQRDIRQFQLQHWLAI

`CNC(CN1CCC[C@@H](CCc2ccccc2)C1)c1ccc(Cl)cc1` (stereo partly drawn) [compound 213, [1-(4-Chloro-phenyl)-2-(3(R)-phenethyl-piperidin-1-yl)-ethyl]-methyl-amine] showed an IC50 [1, 2] of less than 1000 nM, an IC50 (serotonin transporter; [3]) of less than 100 nM and an IC50 (dopamine transporter; [4]) of less than 1000 nM.

With `O=C(CN1CCCC(COc2ccc(C(F)(F)F)cc2)C1)C1(c2ccc(Cl)cc2)CCC1` (stereo not drawn) [compound 23, 1-[1-(4-Chlorophenyl)cyclobutyl]-2-[3-(4-trifluoromethyl-phenoxymethyl)piperidin-1-yl]ethanone] the IC50 [1, 2] was less than 1000 nM, the IC50 (serotonin transporter; [3]) was greater than 1000 nM and the IC50 (dopamine transporter; [4]) was less than 100 nM.

Compound `OC(CN1CCCC(CCc2ccc(OC(F)(F)F)cc2)C1)c1ccc(Cl)cc1` (stereo not drawn) [compound 201] has an IC50 [1, 2] of less than 1000 nM, an IC50 (serotonin transporter; [3]) of less than 1000 nM and an IC50 (dopamine transporter; [4]) of less than 10 nM.

With `FC(F)(F)c1cc(COC2CCCN(CC3(c4ccc(Cl)cc4)CCC3)C2)cc(C(F)(F)F)c1` (stereo not drawn) [compound 189, 3-(3,5-Bis-trifluoromethyl-benzyloxy)-1-[1-(4-chloro-phenyl)-cyclobutylmethyl]-piperidine] the IC50 [1, 5] was greater than 1000 nM, the IC50 (serotonin transporter; [3]) was greater than 1000 nM and the IC50 (dopamine transporter; [4]) was greater than 1000 nM.

`CC(CN1CCCC(COc2ccc(C(F)(F)F)cc2)C1)C(O)c1ccc(Cl)cc1` (stereo not drawn) [compound 218, 1-(4-Chloro-phenyl)-2-methyl-3-[3-(4-trifluoromethyl-phenoxymethyl)-piperidin-1-yl]-propan-1-ol] showed an IC50 [1, 2] greater than 1000 nM, an IC50 (serotonin transporter; [3]) of less than 1000 nM and an IC50 (dopamine transporter; [4]) of less than 10 nM.

`OC(C[C@H]1CCCN(CC2(c3ccc(Cl)cc3)CCC2)C1)c1ccccc1` (stereo in doubt) [compound 182, (S)-[2-{1-[1-(4-Chloro-phenyl)-cyclobutylmethyl]-piperidin-3-yl}-1-phenyl-ethanol]] showed an IC50 [1, 5] greater than 1000 nM, an IC50 (serotonin transporter; [3]) of less than 1000 nM and an IC50 (dopamine transporter; [4]) of less than 100 nM.

`OC(CN1CCCC(COc2ccc(C(F)(F)F)cc2)C1)(c1ccccc1)C1CCCCC1` (stereo not drawn) [compound 191, 1-Cyclohexyl-1-phenyl-2-[3-(4-trifluoromethyl-phenoxymethyl)-piperidin-1-yl]-ethanol] was tested, and the IC50 [1, 5] was greater than 1000 nM, the IC50 (serotonin transporter; [3]) was greater than 1000 nM and the IC50 (dopamine transporter; [4]) was greater than 1000 nM.

With `OC(CN1CCCC(COc2ccc(C(F)(F)F)cc2)C1)C1(c2ccccc2OC(F)(F)F)CCC1` (single isomer, unassigned) [compound 227, 1-[1-(2-Trifluoromethoxy-phenyl)-cyclobutyl]-2-[3-(4-trifluoromethyl-phenoxymethyl)-piperidin-1-yl]-ethanol] the IC50 [1, 2] was greater than 1000 nM, the IC50 (serotonin transporter; [3]) was less than 1000 nM and the IC50 (dopamine transporter; [4]) was less than 1000 nM.

`FC(F)(F)c1ccc(OCC2CCCN(CC3COc4ccccc4O3)C2)cc1` (single isomer, unassigned) [compound 178, 1-(2,3-Dihydro-benzo[1,4]dioxin-2-ylmethyl)-3-(4-trifluoromethyl-phenoxymethyl)-piperidine] gave an IC50 [1, 2] of less than 1000 nM, an IC50 (serotonin transporter; [3]) of less than 1000 nM and an IC50 (dopamine transporter; [4]) of less than 1000 nM.

Compound `CO[C@H](CN1CCC[C@H](COc2ccc(C(F)(F)F)cc2)C1)C1(c2ccc(Cl)cc2)CCC1` [compound 163] has an IC50 [1, 2] greater than 1000 nM, an IC50 (serotonin transporter; [3]) of less than 1000 nM and an IC50 (dopamine transporter; [4]) of less than 10 nM.

`O=C(CN1CCCC(COc2ccccc2)C1)c1ccc(Cl)cc1` (stereo not drawn) [compound 32, 1-(4-Chloro-phenyl)-2-(3-phenoxymethyl-piperidin-1-yl)-ethanone] gave an IC50 [1, 2] of less than 1000 nM, an IC50 (serotonin transporter; [6]) greater than 1000 nM and an IC50 (dopamine transporter; [4]) greater than 1000 nM.

With `OC(CN1CCCC(CCc2ccc(C(F)(F)F)cc2)C1)C1(c2ccc(Cl)cc2)CCC1` (single isomer, unassigned) [compound 194, 1-[1-(4-Chloro-phenyl)-cyclobutyl]-2-{3-[2-(4-trifluoromethyl-phenyl)-ethyl]-piperidin-1-yl}-ethanol] the IC50 [1, 2] was less than 100 nM, the IC50 (serotonin transporter; [3]) was less than 1000 nM and the IC50 (dopamine transporter; [4]) was less than 10 nM.

In the case of `OC(CN1CCCC(COc2ccccc2)C1)C1(c2ccc(Cl)cc2)CCC1` (stereo not drawn) [compound 21, 1-[1-(4-Chloro-phenyl)cyclobutyl]-2-(3-phenoxymethylpiperidin-1-yl)ethanol], the IC50 [1, 2] is reported as less than 100 nM, the IC50 (serotonin transporter; [3]) is reported as less than 1000 nM and the IC50 (dopamine transporter; [4]) is reported as less than 100 nM.

For `O=C(CC1CCCN(CC2(c3ccc(Cl)cc3)CCC2)C1)c1ccccc1` (stereo in doubt) [compound 183, (S)-[2-{1-[1-(4-Chloro-phenyl)-cyclobutylmethyl]-piperidin-3-yl}-1-phenyl-ethanone]], the IC50 [1, 2] was less than 1000 nM, the IC50 (serotonin transporter; [3]) was less than 1000 nM and the IC50 (dopamine transporter; [4]) was less than 1000 nM.

`NCC1CCCN(CC2(c3ccc(Cl)cc3)CCC2)C1` (stereo not drawn) [compound 230, C-{1-[1-(4-Chloro-phenyl)-cyclobutylmethyl]-piperidin-3-yl}-methylamine] showed an IC50 [1, 5] greater than 1000 nM, an IC50 (serotonin transporter; [3]) greater than 1000 nM and an IC50 (dopamine transporter; [4]) of less than 100 nM.

`FC(F)(F)c1ccc(OCC2CCCN(CCc3ccc(-c4ccccc4)cc3)C2)cc1` (stereo not drawn) [compound 181, 1-(2-Biphenyl-4-yl-ethyl)-3-(4-trifluoromethyl-phenoxymethyl)-piperidine] gave an IC50 [1, 2] of less than 1000 nM, an IC50 (serotonin transporter; [6]) of less than 100 nM and an IC50 (dopamine transporter; [4]) greater than 1000 nM.

`CN(C[C@@H]1CCCN(CC2(c3ccc(Cl)cc3)CCC2)C1)c1ccccc1` [compound 35, {1-[1-(4-Chloro-phenyl)-cyclobutylmethyl]-piperidin-3-R-ylmethyl}-methyl-phenyl-amine] gave an IC50 [1, 5] greater than 1000 nM, an IC50 (serotonin transporter; [3]) greater than 1000 nM and an IC50 (dopamine transporter) greater than 1000 nM.

In the case of `COc1ccc(C2(CN3CCC[C@H](COc4ccc(OC(F)(F)F)cc4)C3)CCC2)cc1` [compound 171, (S)-1-[1-(4-Methoxy-phenyl)-cyclobutylmethyl]-3-(4-trifluoromethoxy-phenoxymethyl)-piperidine], the IC50 [1, 2] is reported as less than 1000 nM, the IC50 (serotonin transporter; [3]) is reported as less than 1000 nM and the IC50 (dopamine transporter; [4]) is reported as less than 10 nM.

Compound `OC(CN1CCCC(CCc2ccc(C(F)(F)F)cc2)C1)C1(c2ccc(Cl)cc2)CCC1` (single isomer, unassigned) [compound 192, 1-[1-(4-Chloro-phenyl)-cyclobutyl]-2-{3-[2-(4-trifluoromethyl-phenyl)-ethyl]-piperidin-1-yl}-ethanol] has an IC50 [1, 2] of less than 1000 nM, an IC50 (serotonin transporter; [3]) of less than 1000 nM and an IC50 (dopamine transporter; [4]) of less than 10 nM.

`OC(CN1CCCC(COc2ccc(C(F)(F)F)cc2)C1)C1(c2ccc(OC(F)(F)F)cc2)CCC1` (stereo not drawn) [compound 206, 1-[1-(4-Trifluoromethoxy-phenyl)-cyclobutyl]-2-[3-(4-trifluoromethyl-phenoxymethyl)-piperidin-1-yl]-ethanol] was tested, and the IC50 [1, 2] was less than 1000 nM, the IC50 (serotonin transporter; [3]) was less than 1000 nM and the IC50 (dopamine transporter; [4]) was less than 100 nM.

With `FC(F)(F)c1ccc(OCC2CCCN(CC3COc4ccccc4O3)C2)cc1` (single isomer, unassigned) [compound 177, 1-(2,3-Dihydro-benzo[1,4]dioxin-2-ylmethyl)-3-(4-trifluoromethyl-phenoxymethyl)-piperidine] the IC50 [1, 2] was greater than 1000 nM, the IC50 (serotonin transporter; [3]) was less than 1000 nM and the IC50 (dopamine transporter; [4]) was greater than 1000 nM.

With `COc1ccc(OCC2CCCN(CC3(c4ccccc4)CCC3)C2)cc1` (stereo not drawn) [compound 55, 3-(4-Methoxy-phenoxymethyl)-1-(1-phenyl-cyclobutylmethyl)piperidine] the IC50 [1, 2] was greater than 1000 nM, the IC50 (serotonin transporter; [3]) was greater than 1000 nM and the IC50 (dopamine transporter; [4]) was less than 1000 nM.

Compound `OC(CN1CCCC(CCc2ccccc2)C1)c1ccc(Cl)cc1` (stereo not drawn) [compound 140, 1-(4-Chloro-phenyl)-2-(3-phenethyl-piperidin-1-yl)-ethanol] has an IC50 [1, 2] of less than 100 nM, an IC50 (serotonin transporter; [3]) of less than 100 nM and an IC50 (dopamine transporter; [4]) of less than 100 nM.

`COC(CN1CCC[C@@H](CCc2ccccc2)C1)c1ccc(Cl)cc1` (stereo partly drawn) [compound 196, 1-[2-(4-Chloro-phenyl)-2-methoxy-ethyl]-3-(R)-phenethyl-piperidine] was tested, and the IC50 [1, 2] was less than 100 nM, the IC50 (serotonin transporter; [3]) was less than 10 nM and the IC50 (dopamine transporter; [4]) was less than 100 nM.

`COc1ccccc1C1(C(O)CN2CCCC(COc3ccc(C(F)(F)F)cc3)C2)CCC1` (stereo not drawn) [compound 164] was tested, and the IC50 [1, 2] was less than 1000 nM, the IC50 (serotonin transporter; [3]) was less than 100 nM and the IC50 (dopamine transporter; [4]) was less than 10 nM.

With `FC(F)(F)c1ccc(OCC2CN(CC3(c4ccc(Cl)cc4)CCC3)CCCO2)cc1` (stereo not drawn) [compound 11] the IC50 [1, 2] was greater than 1000 nM, the IC50 (serotonin transporter; [3]) was greater than 1000 nM and the IC50 (dopamine transporter; [4]) was less than 1000 nM.

Compound `FC(F)(F)c1ccc(OCC2CCCN(CC3COc4ccccc4O3)C2)cc1` (single isomer, unassigned) [compound 179, 1-(2,3-Dihydro-benzo[1,4]dioxin-2-ylmethyl)-3-(4-trifluoromethyl-phenoxymethyl)-piperidine] has an IC50 [1, 2] of less than 1000 nM, an IC50 (serotonin transporter; [3]) of less than 1000 nM and an IC50 (dopamine transporter; [4]) greater than 1000 nM.

For `OC1CCCN(CC2(c3ccc(Cl)cc3)CCC2)C1` (stereo not drawn) [compound 89, 1-[1-(4-Chlorophenyl)cyclobutylmethyl]piperidin-3-ol], the IC50 [1, 2] was less than 1000 nM, the IC50 (serotonin transporter; [3]) was greater than 1000 nM and the IC50 (dopamine transporter; [4]) was less than 1000 nM.

`O=C(CN1CCCC(COc2ccccc2)C1)C1(c2ccc(Cl)cc2)CCC1` (stereo not drawn) [compound 20, 1-[1-(4-Chlorophenyl)cyclobutyl]-2-(3-phenoxymethylpiperidin-1-yl)ethanone] showed an IC50 [1, 2] of less than 1000 nM, an IC50 (serotonin transporter; [3]) of less than 1000 nM and an IC50 (dopamine transporter; [4]) of less than 1000 nM.

`COc1ccccc1C1(C(O)CN2CCCC(COc3ccc4c(c3)OCO4)C2)CCC1` (stereo not drawn) [compound 232, 2-[3-(Benzo[1,3]dioxol-5-yloxymethyl)-piperidin-1-yl]-1-[1-(2-methoxy-phenyl)-cyclobutyl]-ethanol] gave an IC50 [1, 2] of less than 1000 nM, an IC50 (serotonin transporter; [3]) of less than 1000 nM and an IC50 (dopamine transporter; [4]) of less than 1000 nM.

Compound `Fc1ccc(OC[C@@H]2CCCN(CC3(c4ccc(Cl)cc4)CCC3)C2)cc1` [compound 133, (R)-1-[1-(4-Chloro-phenyl)-cyclobutylmethyl]-3-(4-fluoro-phenoxymethyl)-piperidine] has an IC50 [1, 2] of less than 1000 nM, an IC50 (serotonin transporter; [6]) greater than 1000 nM and an IC50 (dopamine transporter; [4]) of less than 1000 nM.

For `CC(O)(CN1CCCC(COc2ccccc2)C1)c1ccc(Cl)cc1` (stereo not drawn) [compound 79, 2-(4-Chloro-phenyl)-1-(3-phenoxymethyl-piperidin-1-yl)-propan-2-ol], the IC50 [1, 2] was less than 1000 nM, the IC50 (serotonin transporter; [3]) was less than 100 nM and the IC50 (dopamine transporter; [4]) was less than 1000 nM.

For `CO[C@@H](CN1CCC[C@H](COc2ccc(C(F)(F)F)cc2)C1)C1(c2ccc(Cl)cc2)CCC1` [compound 162], the IC50 [1, 2] was greater than 1000 nM, the IC50 (serotonin transporter; [3]) was less than 1000 nM and the IC50 (dopamine transporter; [4]) was less than 100 nM.

For `O=C(N1CCCOC(COc2ccc(C(F)(F)F)cc2)C1)C1(c2ccc(Cl)cc2)CCC1` (stereo not drawn) [compound 16, [1-(4-Chloro-phenyl)-cyclobutyl]-[2-(4-trifluoromethyl-phenoxymethyl)-[1,4]oxazepan-4-yl]-methanone], the IC50 [1, 5] was greater than 1000 nM, the IC50 (serotonin transporter; [3]) was greater than 1000 nM and the IC50 (dopamine transporter) was greater than 1000 nM.
